Measured values: publication PMC8998802 (Pain, 2019)

Molecular target: δ opioid receptor (DOR) (Homo sapiens, UniProt P41143)
Experiment: competition radioligand binding vs 3H-diprenorphine, DOR-CHO membranes

δ opioid receptor (DOR), sequence (P41143 whole entry): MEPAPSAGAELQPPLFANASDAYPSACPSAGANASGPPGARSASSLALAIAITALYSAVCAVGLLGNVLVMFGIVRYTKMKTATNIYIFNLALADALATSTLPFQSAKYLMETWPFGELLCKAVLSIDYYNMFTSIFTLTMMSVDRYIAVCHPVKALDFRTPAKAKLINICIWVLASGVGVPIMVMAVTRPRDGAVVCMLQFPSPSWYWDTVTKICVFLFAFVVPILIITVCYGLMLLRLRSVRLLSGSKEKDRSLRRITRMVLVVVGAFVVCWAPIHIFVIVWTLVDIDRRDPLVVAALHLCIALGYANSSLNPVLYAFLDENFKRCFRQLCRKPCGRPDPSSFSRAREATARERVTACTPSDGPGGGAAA

Cc1noc(C)c1CC(=O)NCc1nc(NCCCc2ccccc2)c2ccccc2n1 [IPPQ, 2-(3,5-dimethylisoxazol-4-yl)-N-((4-((3-phenylpropyl)amino)quinazolin-2-yl)methyl)acetamide]
Ki: > 1000 nM
